Assay results: ChEMBL document CHEMBL1132161, “Therapeutic potential and strategies for inhibiting tumor necrosis factor-alpha” (J Med Chem, 1999)

Test: Compound was tested for the inhibition of IL1-beta and interleukin-6-production
Type: functional

IC50: 9 µM
SMILES: Nc1ncnc2c1ncn2[C@@H]1CC[C@@H](O)C1
